The record followed here is ChEMBL document CHEMBL1132808, “Solid-phase synthesis of di- and tripeptidic hydroxamic acids as inhibitors of procollagen C-proteinase” (Bioorg Med Chem Lett, 2000).

Molecules are shown by their SMILES. Several values for one entry are separate records, joined by “and”; a condition that tells them apart may be missing. Equal entries are not always repeated. Where a SMILES comes first, the peptide text is derived from it. [ ]: non-standard residue; d: D form. The star is where a group is joined. ξ: configuration not given here. ξW = NC(Cc1c[nH]c2ccccc12)C(=O)O; Cbz = O=C(OCc1ccccc1)*; ξT = CC(O)C(N)C(=O)O; NHOH = ON*

The target of the experiment is T1, Bone morphogenetic protein 1 (Homo sapiens, UniProt P13497).
T1 sequence (P13497 whole entry): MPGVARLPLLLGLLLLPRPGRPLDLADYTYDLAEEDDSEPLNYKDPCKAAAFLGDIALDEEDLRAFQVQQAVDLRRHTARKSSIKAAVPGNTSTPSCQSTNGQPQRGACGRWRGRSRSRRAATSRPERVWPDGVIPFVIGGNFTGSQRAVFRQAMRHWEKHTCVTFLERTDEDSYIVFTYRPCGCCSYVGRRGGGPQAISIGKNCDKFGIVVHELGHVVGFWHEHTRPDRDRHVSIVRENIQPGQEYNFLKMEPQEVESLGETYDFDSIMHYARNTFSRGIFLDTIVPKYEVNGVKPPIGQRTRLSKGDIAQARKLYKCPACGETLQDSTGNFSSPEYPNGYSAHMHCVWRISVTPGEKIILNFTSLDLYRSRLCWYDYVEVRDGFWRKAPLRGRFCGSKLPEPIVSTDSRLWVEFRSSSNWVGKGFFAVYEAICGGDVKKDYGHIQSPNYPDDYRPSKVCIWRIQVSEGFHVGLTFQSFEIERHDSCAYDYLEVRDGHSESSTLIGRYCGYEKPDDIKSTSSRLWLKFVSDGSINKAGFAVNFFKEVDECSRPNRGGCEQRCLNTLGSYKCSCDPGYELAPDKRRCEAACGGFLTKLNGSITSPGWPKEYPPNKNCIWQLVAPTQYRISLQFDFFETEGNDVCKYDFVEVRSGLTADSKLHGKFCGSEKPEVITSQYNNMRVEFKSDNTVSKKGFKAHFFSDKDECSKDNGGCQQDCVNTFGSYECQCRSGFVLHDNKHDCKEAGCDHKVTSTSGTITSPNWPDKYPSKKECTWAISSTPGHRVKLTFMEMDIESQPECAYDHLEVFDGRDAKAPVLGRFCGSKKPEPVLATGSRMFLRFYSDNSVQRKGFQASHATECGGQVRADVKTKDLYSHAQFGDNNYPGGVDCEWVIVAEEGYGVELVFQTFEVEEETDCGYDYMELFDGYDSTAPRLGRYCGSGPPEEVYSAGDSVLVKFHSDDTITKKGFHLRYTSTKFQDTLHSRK
The experiment is described as follows: Inhibitory effect against Procollagen C-terminal proteinase.
The term IC50 denotes the concentration that gives 50% inhibition. Low readings indicate inhibition by little substance, high ones a need for much substance. Compound `O=C(NC(Cc1c[nH]c2ccccc12)C(=O)NO)OCc1ccccc1` (stereo not drawn) returned a half-inhibitory concentration (IC50) of 67000 nM.
In the case of `CC[C@@H](C)[C@@H](NC(=O)OCc1ccccc1)C(=O)NC(Cc1ccc(OC(C)(C)C)cc1)C(=O)NO` (stereo partly drawn) it was 130 nM.
Under `CC[C@@H](C)[C@@H](NCN(Cc1ccc(F)cc1)C(=O)c1ccc(Br)cc1)C(=O)N[C@H](Cc1cscn1)C(=O)NO` stands 89 nM.
In the case of `CC(O)C(NC(=O)OCc1ccccc1)C(=O)N[C@@H](Cc1c[nH]c2ccccc12)C(=O)NO` (stereo partly drawn) (Cbz-[ξT]-Trp-{NHOH}) it was 15000 nM.
With `CC[C@H](C)[C@H](NS(=O)(=O)c1cc(C)c(Cl)cc1C)C(=O)N[C@@H](CNC(=O)OCc1ccccc1)C(=O)NO`, the IC50 was found to be 67 nM.
In the case of `O=C(NC(C(=O)N[C@H](Cc1c[nH]c2ccccc12)C(=O)NO)c1ccccc1)OCc1ccccc1` (stereo partly drawn) it was 1200 nM; in that of `CC[C@H](C)[C@H](NS(=O)(=O)c1cc(Cl)ccc1Cl)C(=O)N[C@@H](CNC(=O)OCc1ccccc1)C(=O)NO`, 65 nM; in that of `CC[C@@H](C)[C@@H](NC(=O)OCc1ccccc1)C(=O)N[C@H](Cc1cnc[nH]1)C(=O)NO`, 250 nM.
For `CC[C@H](C)[C@@H](NC(=O)Nc1ccccc1[N+](=O)[O-])C(=O)N[C@H](Cc1cc2ccccc2[nH]1)C(=O)NO`, the IC50 turned out to be 2100 nM. This IC50 lies about 8.4-fold higher than the previous one.
In the case of `CC[C@@H](C)[C@@H](NC(=O)OCc1ccccc1)C(=O)N[C@H](Cc1ccc([N+](=O)[O-])cc1)C(=O)NO` it was 200 nM and 220 nM; in that of `CC[C@@H](C)[C@@H](NC(=O)OCc1cccc(C(F)(F)F)c1)C(=O)N[C@H](Cc1cscn1)C(=O)NO`, 90 nM; in that of `CC[C@@H](C)[C@@H](NC(=O)OCc1ccccc1)C(=O)NCC(NCc1ccccc1)C(=O)NO` (stereo partly drawn), 94 nM.
In the case of `CC[C@@H](C)[C@@H](NS(=O)(=O)c1cc(Cl)c(Cl)cc1Cl)C(=O)N[C@H](Cc1cscn1)C(=O)NO`, half-maximal inhibition (IC50) was put at 49 nM.
In the case of `CC[C@@H](C)[C@@H](NC(=O)OCc1ccccc1)C(=O)NCC(NC(=O)OCc1ccccc1)C(=O)NO` (stereo partly drawn) it was 61 nM.
Under `CC[C@@H](C)[C@@H](NCN(Cc1ccc(F)cc1)C(=O)c1cccc(Cl)c1)C(=O)N[C@H](Cc1cscn1)C(=O)NO` stands 53 nM; under `CNC(=O)C1CCCN1C(=O)[C@H](CCC(N)=O)NC(=O)[C@H](CC(=O)O)CC(=O)NO` (stereo partly drawn), 22000 nM; under `CC[C@@H](C)[C@@H](NS(=O)(=O)c1cc(Cl)ccc1Cl)C(=O)N[C@H](Cc1cscn1)C(=O)NO`, 29 nM.
Under `CC[C@@H](C)[C@@H](NC(=O)OCc1ccc(Cl)c(Cl)c1)C(=O)N[C@H](Cc1cscn1)C(=O)NO` stands 73 nM; under `CC[C@H](C)[C@@H](Nc1cccc(C(F)(F)F)c1)C(=O)N[C@H](Cc1cc2ccccc2[nH]1)C(=O)NO`, 2800 nM; under `CC[C@@H](C)[C@@H](NC(=O)OCc1ccccc1)C(=O)NC(Cc1ccc(-c2ccccc2)cc1)C(=O)NO` (stereo partly drawn), 200 nM.
The compound `CC[C@@H](C)[C@@H](NS(=O)(=O)c1ccc(Br)c(Br)c1)C(=O)N[C@H](Cc1cscn1)C(=O)NO` came in with a half-maximal inhibitory concentration (IC50) of 30 nM.
`CC[C@@H](C)[C@@H](NC(=O)OCc1ccccc1)C(=O)N[C@H](Cc1ccccn1)C(=O)NO` returned a concentration for half-maximal inhibition (IC50) of 220 nM.
In the case of `CC[C@@H](C)[C@@H](NC(=O)OCc1ccccc1)C(=O)N[C@H](Cc1ccc(Br)s1)C(=O)NO` it was 210 nM.
In the case of `CC[C@H](C)[C@@H](NC(=O)NCCc1ccccc1)C(=O)N[C@H](Cc1cc2ccccc2[nH]1)C(=O)NO`, inhibition was half-maximal at 3600 nM (IC50).
As to `CC[C@H](C)[C@@H](NC(=O)Nc1cc(Cl)cc(Cl)c1)C(=O)N[C@H](Cc1cc2ccccc2[nH]1)C(=O)NO`, the IC50 was 5100 nM.
In the case of `CC[C@@H](C)[C@@H](NS(=O)(=O)C1=CCC(C)(Cl)C=C1C)C(=O)N[C@H](Cc1cscn1)C(=O)NO` (stereo partly drawn), the midpoint of inhibition, the IC50, lay at 43 nM. Compared with the last compound, the IC50 is about 120-fold lower.
Under `CC(=O)N[C@@H](Cc1ccc(O)cc1)C(=O)N[C@@H](Cc1ccc(O)cc1)C(=O)NCC(=O)NO` (Ac-Tyr-Tyr-Gly-{NHOH}) stands 65000 nM; under `CC[C@H](C)[C@@H](NC(=O)Nc1ccccc1Cl)C(=O)N[C@H](Cc1cc2ccccc2[nH]1)C(=O)NO`, 5000 nM; under `CC(=O)N[C@@H](Cc1ccc(O)cc1)C(=O)NCC(=O)NO`, 280000 nM.
For `CC[C@H](C)[C@H](NS(=O)(=O)c1cc(Br)c(Br)s1)C(=O)NC(Cc1cscn1)C(=O)NO` (stereo partly drawn), it took 32 nM to reach half-maximal inhibition (IC50).
Under `CC[C@@H](C)[C@@H](NC(=O)OCc1ccccc1)C(=O)NC(Cc1ccccc1Cl)C(=O)NO` (stereo partly drawn) stands 190 nM.
In the case of `CC[C@@H](C)[C@@H](NC(=O)OCc1ccccc1)C(=O)N[C@H](Cc1ccc(Br)cc1)C(=O)NO` it was 200 nM; in that of `CC[C@H](C)[C@@H](Nc1ccc(Cl)c(Cl)c1)C(=O)N[C@H](Cc1cc2ccccc2[nH]1)C(=O)NO`, 750 nM.
Under `O=C(CCCNC(=O)OCc1ccccc1)N[C@@H](Cc1c[nH]c2ccccc12)C(=O)NO` stands 19000 nM; under `CC(C)C(NC(=O)OCc1ccccc1)C(=O)N[C@H](Cc1c[nH]c2ccccc12)C(=O)NO` (stereo partly drawn), 1900 nM; under `CCCC(NC(=O)OCc1ccccc1)C(=O)N[C@H](Cc1c[nH]c2ccccc12)C(=O)NO` (stereo partly drawn), 870 nM.
`CC[C@@H](C)[C@H](NC(=O)C(Cc1ccc(F)cc1)NC(=O)OCc1ccccc1)C(=O)N[C@@H](Cc1cscn1)C(=O)NO` (stereo partly drawn) showed a 50% inhibitory concentration (IC50) of 78 nM.
In the case of `CC[C@@H](C)[C@@H](NCN(Cc1ccc(F)cc1)C(=O)c1cccc(C)c1)C(=O)N[C@H](Cc1cscn1)C(=O)NO` it was 110 nM.
Take `CC[C@@H](C)[C@H](NC(=O)C(Cc1ccccc1)NC(=O)OCc1ccccc1)C(=O)N[C@@H](Cc1cscn1)C(=O)NO` (stereo partly drawn): the IC50 was determined as 44 nM.
In the case of `O=C(N[C@H](Cc1ccccc1)C(=O)N[C@@H](Cc1c[nH]c2ccccc12)C(=O)NO)OCc1ccccc1` it was 18000 nM; in that of `O=C(N[C@H](Cc1ccc(O)cc1)C(=O)N[C@@H](Cc1c[nH]c2ccccc12)C(=O)NO)OCc1ccccc1`, 20000 nM.
Under `CC[C@@H](C)[C@H](NC(=O)C(CC(C)C)NC(=O)OCc1ccccc1)C(=O)N[C@@H](Cc1cscn1)C(=O)NO` (stereo partly drawn) stands 110 nM; under `CC[C@@H](C)[C@@H](NC(=O)OCc1ccccc1)C(=O)N[C@H](Cc1cscn1)C(=O)NO` (stereo in doubt; form 2), 110 nM; under `CC[C@@H](C)[C@@H](NC(=O)OCc1cc(Cl)cc(Cl)c1)C(=O)N[C@H](Cc1cscn1)C(=O)NO`, 150 nM.
In the case of `O=C(NC(Cc1c[nH]c2ccccc12)C(=O)N[C@@H](Cc1c[nH]c2ccccc12)C(=O)NO)OCc1ccccc1` (stereo partly drawn) (Cbz-[ξW]-Trp-{NHOH}) it was 19000 nM.
As for `CC[C@@H](C)[C@@H](NCN(Cc1ccc(F)cc1)C(=O)c1ccc(Cl)cc1)C(=O)N[C@H](Cc1cscn1)C(=O)NO`, the IC50 stood at 50 nM.
Under `CC[C@@H](C)[C@H](NC(=O)C(COCc1ccccc1)NC(=O)OCc1ccccc1)C(=O)N[C@@H](Cc1cscn1)C(=O)NO` (stereo partly drawn) stands 78 nM; under `CC[C@@H](C)[C@@H](NCN(Cc1ccc(F)cc1)C(=O)c1ccc(F)cc1)C(=O)N[C@H](Cc1cscn1)C(=O)NO`, 90 nM; under `CC[C@@H](C)[C@@H](NC(=O)OCc1ccccc1)C(=O)N[C@H](Cc1cscn1)C(=O)NO` (stereo in doubt; form 1), 110 nM.
`CC[C@@H](C)[C@@H](NC(=O)OCc1ccccc1Br)C(=O)N[C@H](Cc1cscn1)C(=O)NO` returned a 50% inhibitory concentration (IC50) of 78 nM. The IC50 values of the last two compounds are within 1.5-fold of each other.
In the case of `CC[C@H](C)[C@@H](NC(=O)OCc1ccccc1)C(=O)N[C@H](Cc1c[nH]c2ccccc12)C(=O)NO` it was 730 nM; in that of `CC[C@H](C)[C@H](NS(=O)(=O)c1cc(Br)c(Br)s1)C(=O)N[C@@H](CNC(=O)OCc1ccccc1)C(=O)NO`, 52 nM.
Under `CC[C@H](C)[C@H](NS(=O)(=O)c1ccc(Br)c(Br)c1)C(=O)N[C@@H](CNC(=O)OCc1ccccc1)C(=O)NO` stands 26 nM.
Under `CC[C@@H](C)[C@H](NC(=O)C(CCSC)NC(=O)OCc1ccccc1)C(=O)N[C@@H](Cc1cscn1)C(=O)NO` (stereo partly drawn) stands 43 nM; under `O=C(O)CCC(NC(=O)OCc1ccccc1)C(=O)N[C@H](Cc1c[nH]c2ccccc12)C(=O)NO` (stereo partly drawn), 3000 nM.
As for `O=C(N[C@@H](Cc1ccccc1)C(=O)N[C@@H](Cc1c[nH]c2ccccc12)C(=O)NO)OCc1ccccc1`, the IC50 is 17000 nM. This IC50 is about 5.7-fold higher than that of the compound before.
`CC[C@@H](C)[C@H](NC(=O)C(Cc1c[nH]c2ccccc12)NC(=O)OCc1ccccc1)C(=O)N[C@@H](Cc1cscn1)C(=O)NO` (stereo partly drawn): the IC50 came out at 67 nM. This IC50 is about 250-fold lower than that of the compound before.
`CNC(=O)[C@H](CCC(N)=O)NC(=O)[C@H](CC(=O)O)CC(=O)NO` yielded an IC50 of 68000 nM.
